According to article PMC8228365, “Degradation Products of Tryptophan in Cell Culture Media: Contribution to Color and Toxicity” (International Journal of Molecular Sciences, 2021):
Like-named read-outs stand apart in the source and are kept apart here.

Experiments:
[1] = tested on: CHOK1 GS cells; experiment: CellTiter-Glo cytotoxicity assay in CHOK1 GS cell line; format: cell-based, Chinese hamster; details: Cricetulus griseus
Procedure: To assay the potential toxicity induced in the CHO cell culture by the Trp degradation products found in this study, a cytotoxicity assay CellTiter-Glo® Luminescent Cell Viability Assay (Cat #G7572, Promega, Madison, WI, USA) was used, following the manufacturer’s instructions. Briefly, the cells were seeded with 25,000 viable cells per cavity of a 96-well opaque white cell culture plate (Thermo Fisher, Waltham, MA, USA) in 80 µL of a pre-warmed medium. […] A DMSO control was added in the same concentration range as the tryptophan degradation compounds were diluted.

[2] = tested on: CHOK1 cells; experiment: CellTiter-Glo cytotoxicity assay in CHOK1 cell line; format: cell-based, Chinese hamster; details: Cricetulus griseus
Procedure: (§1) To assay the potential toxicity induced in the CHO cell culture by the Trp degradation products found in this study, a cytotoxicity assay CellTiter-Glo® Luminescent Cell Viability Assay (Cat #G7572, Promega, Madison, WI, USA) was used, following the manufacturer’s instructions. Briefly, the cells were seeded with 25,000 viable cells per cavity of a 96-well opaque white cell culture plate (Thermo Fisher, Waltham, MA, USA) in 80 µL of a pre-warmed medium. Tryptophan degradation compounds were added in triplicates to the cells, ranging from 1 mM to 46 nM. A DMSO control was added in the same concentration range as the tryptophan degradation compounds were diluted. The dose response curves were fitted with a 4PL model by GraphPad Prism v.7 (GraphPad Software, San Diego, CA, USA) after luminescence readout with an EnVision 2104 Multilabel Reader (Perkin Elmer, Waltham, MA, USA).

[3] = tested on: CHOZN 6 cells; experiment: CellTiter-Glo cytotoxicity assay in CHOZN 6 cell line; format: cell-based, Chinese hamster; details: Cricetulus griseus, read-out: [GI50] CHOZN 6
Procedure: as §1

[4] = tested on: CHOZN 10 cells; experiment: CellTiter-Glo cytotoxicity assay in CHOZN 10 cell line; format: cell-based, Chinese hamster; details: Cricetulus griseus, read-out: [GI50] CHOZN 10
Procedure: as §1

[5] = tested on: CHO cells; experiment: CHO cell toxicity summarised across the four CHO cell lines; format: cell-based, Chinese hamster; details: Cricetulus griseus, read-out: GI50 across all cell lines
Procedure: as §1

[6] = Color measurement (ΔE*) of standards spiked into water; format: physicochemical; details: theoretical 500 µM, 1% DMSO, ΔE* > 1 deemed significant
Procedure: (§2) Compounds were dissolved in DMSO at 50 mM and then spiked into the solutions to achieve a final compound concentration of 500µM. Some of the tested compounds formed a precipitate immediately upon spiking of the DMSO solution. As the precipitates in solution can interfere with the absorption measurement, each sample was centrifuged prior to taking absorption measurements, meaning that the final concentrations were not all at 500 µM. […] In stability experiments, eight of these nine compounds (all except 46) were present in at least one condition in the degraded water samples, and four of these nine compounds (28, 31, 38, and 46) were present in the degraded feed.
(§3) Absorbance measurements were taken in the range of 380 nm to 780 nm (20 nm steps) of 100 µL of the samples in four technical replicates (Envision, Perkin Elmer, Waltham, MA, USA). From the absorbance values, the change in color was calculated using L*a*b* and ΔE* values according to DIN 5033-3 and DIN 6174 norms. The CIE 1931 standard observer (2°) and the D65 illuminant were selected.
(§4) Chemical standards were prepared as 50 mM stocks in DMSO and then spiked into the aqueous solutions (either water or feed) to achieve a theoretical compound concentration of 500 µM (1% DMSO). The solutions were centrifuged, and the absorbance measurements of these solutions was measured and converted to ΔE* values as described above. The control condition was pure DMSO (1% v/v).

[7] = Color measurement (ΔE*) of standards spiked into feed; format: physicochemical; details: theoretical 500 µM, 1% DMSO, ΔE* > 1 deemed significant
Procedure: as §2, §3, §4

[8] = tested on: cancerous and non-cancerous human cell lines; design: method as in PMID 28720329, PMID 22819942, PMID 32792961; details: wide range of human cell lines; cited from earlier work
[9] = tested on: human cancer cell lines; design: method as in PMID 24930832; details: cited from earlier work
[10] = tested on: bacteria; design: method as in PMID 24930832; details: cited from earlier work

| Compound | GI50 ([1]; CHO-K1, read-out: [GI50] CHOK1 GS) | GI50 ([2]; CHO-K1, read-out: [GI50] CHOK1) | GI50 [3] | GI50 [4] | GI50 ([5]; CHO) | Color change as measured by ΔE* in water [6] | Color change as measured by ΔE* in feed [7] | toxicity against cancerous and non-cancerous human cell lines [8] | GI50 ([1]; CHO-K1, CHOK1 GS cell line, 1 mM to 46 nM, 4PL fit, read-out: [GI50] CHOK1 GS) | GI50 ([2]; CHO-K1, CHOK1 cell line, 1 mM to 46 nM, 4PL fit, read-out: [GI50] CHOK1) | GI50 ([3]; CHOZN 6 cell line, 1 mM to 46 nM, 4PL fit) | GI50 ([4]; CHOZN 10 cell line, 1 mM to 46 nM, 4PL fit) | GI50 ([5]; across all four CHO cell lines) | toxicity in human cancer cell lines [9] | antibacterial activity [10] |
| --- | --- | --- | --- | --- | --- | --- | --- | --- | --- | --- | --- | --- | --- | --- | --- |
| O=C1c2ccccc2-n2c1nc1ccccc1c2=O [Compound 39, Tryptanthrin] | < 0.13 µM | 0.2 µM | 1.1 µM | 1.05 µM | ≤ 1.1 µM | significant color change | significant color change | low micromolar toxicity |  |  |  |  |  |  |  |
| c1ccc2c(-c3nccc4c3[nH]c3ccccc34)c[nH]c2c1 [Compound 34, 1-(1H-Indol-3-yl)-9H-pyrido[3,4-b]indole] |  |  |  |  |  | significant color change | significant color change |  | 24 µM | 10.6 µM | 12.3 µM | 13.1 µM | 10 to 22 µM | some toxicity | most potent as an antibacterial agent |
